Measurements: publication PMC4976335, “Miniaturizing VEGF: Peptides mimicking the discontinuous VEGF receptor-binding site modulate the angiogenic response” (Scientific Reports, 2016)
Values belong to the molecule of their own block, whether it stands above or below them. Bridges are numbered along the chain shown (N, C = ends). [ ]: non-standard residue; d: D form. isopeptide = not defined here; Ahp = NCCCCCCC(=O)O

Experiments:
[1] = system: VEGFR2; experiment: VEGFR2 auto-phosphorylation (agonism), anti-phospho-Tyr western blot in PAEC overexpressing VEGFR2; format: cell-based
[2] = system: C57 black mice; experiment: In vivo Matrigel plug angiogenesis assay; conditions: 500 ng/plug, subcutaneous Matrigel, 10 days, implants inspected and haemoglobin content measured (Fig. 7B)
Description: Figure 7 In vitro and in vivo angiogenic properties of EP peptides. (A) HUVECs were plated onto a layer of basement membrane matrix (Matrigel) and incubated at 37 °C for 18 h in the presence of EP3, EP5, EP6 and VEGF (50 ng/mL). After treatment, photomicrographs of tubular structures (Top) were quantified as angiogenic index, calculated as the number of complete circles counted/field by microscope image analysis (Bottom). *p < 0.05 vs basal control. (B) In vivo Matrigel angiogenesis assay was performed by injecting Matrigel solution containing 500 ng of the selected EP peptides into the dorsal midline region of C57 black mice. […] After 10 days Matrigel implants were recovered (Top) and analyzed for their haemoglobin content (bottom). *p < 0.05 and **p < 0.01 vs Matrigel alone.
The pro-angiogenic activity of EP peptides was evaluated by an in vivo test, using Matrigel plugs loaded with EP3, EP5 or EP6 peptides or VEGF (500 ng/plug). […] The hemoglobin content of explanted plugs was measured by a spectrophotometric assay (Fig. 7B, Bottom).
In vivo Matrigel angiogenesis assay was performed as previously described. […] Plugs were resuspended in 1 ml of Drabkin’s reagent for 18 h on ice and haemoglobin concentration was determined by absorbance at 540 nm and compared with a standard curve (Sigma-Aldrich, Milan, Italy).

[3] = system: VEGFR2; experiment: Antagonism of VEGF-stimulated VEGFR2 phosphorylation, western blot in PAEC overexpressing VEGFR2; format: cell-based
[4] = system: human umbilical vein endothelial cells (HUVECs); experiment: HUVEC proliferation assay (cell counting), with or without SU5614; format: cell-based; conditions: SU5614 (10 μM) alone, 0 ng/mL peptide, 72 h
Description: As the activation of ERK1/2 pathway in ECs leads to DNA synthesis and cell proliferation, we evaluated whether EP3, EP5 and EP6 peptides were able to stimulate cell growth. A proliferation assay was performed on human umbilical vein endothelial cells (HUVECs). Cells in starvation medium were incubated with increasing concentrations (0.5, 5 and 50 ng/mL) of the selected peptides and VEGF, and cell number was counted after 72 h. […] Cell survival was evaluated by MTT assay in PAEC-VEGFR2 following stimulation with EP6 and equimolar concentration with control peptides for 48 h.
The same proliferation assay was repeated in HUVEC in presence of the tyrosine kinase inhibitor SU5614 (Table 1). In the presence of the inhibitor, the proliferative effect of the EP peptides was suppressed, confirming that EP-induced proliferation was correlated to VEGFR2 phosphorylation.
Human Umbilical Vein Endothelial Cells (HUVECs) were purchased from Lonza (Basel, Switzerland). All experiments were performed on low passage cell cultures. […]
HUVECs were plated at density of 1500 cells/well in 96-well gelatin-coated microplates. […] Cell proliferation was evaluated as number of cells counted per well[35].

[5] = target: T1, second domain of VEGFR1 (VEGFR1D2) (UniProt P17948 129-229); experiment: NMR titration; 2D [15N,1H] HSQC chemical shift perturbation; 110 μM 15N-labeled VEGFR1D2, EP6 added from 27.5 to 550 μM; 20 mM Tris-HCl pH 7.5, 0.02% sodium azide, 10% 2H2O; 298 K; single-site fit, overall apparent KD as mean over the residues of the binding site; conditions: both partners purified
T1 construct: VEGFR1 (vascular endothelial growth factor receptor 1), second domain; The shifts were mapped onto the NMR structure PDB 1QSV of VEGFR1D2; also called domain 2 of VEGFR1; source: recombinant; 15N-labeled for the HSQC titration
T1 sequence (P17948 129-229): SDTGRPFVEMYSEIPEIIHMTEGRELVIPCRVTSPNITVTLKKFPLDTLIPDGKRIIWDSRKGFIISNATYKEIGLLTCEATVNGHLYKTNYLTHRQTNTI

Molecule: Vascular Endothelial Growth Factor [VEGF]
- VEGFR2 phosphorylation, fold increase respect to Ctr ([1]; 50 ng/mL each, 15 min at 37 °C, PAEC overexpressing VEGFR2, western blot quantification, anti-phospho-Tyr, gels representative of three experiments): 6.5 ± 1.3 fold increase respect to Ctr
- VEGFR2 phosphorylation induced (in words) ([1]; 50 ng/mL, 15 min, PAEC overexpressing VEGFR2 (Fig. 2A)): induced VEGFR2 phosphorylation
- blood vessel formation / angiogenesis in Matrigel plugs (in words) [2]: blood vessel formation was observed

Molecule: Cc1cc(C)c(/C=C2\C(=O)Nc3ccc(Cl)cc32)[nH]1 [SU5614]
- antagonism of VEGF-stimulated VEGFR2 phosphorylation (in words) ([3]; EP/control peptides 50 ng/mL 15 min, then VEGF 50 ng/mL 15 min, SU5614 10 μM (Fig. 2B)): inhibited
- VEGFR2 phosphorylation after VEGF, ∆ of fold increase respect to VEGF induced response ([3]; peptide 50 ng/mL pretreatment 15 min, then VEGF 50 ng/mL for additional 15 min, serum deprivation, SU5614 10 μM, western blot quantification, representative of three experiments): 0.15 ± 0.05 ∆ of fold increase respect to VEGF induced response
- HUVEC proliferation, cells counted/well [4]: 63.5 ± 8.7 cells counted/well

- Kd [5]: 139 µM
B1: EP6 peptide (mini-VEGF; AcHx ligated to Hn6) (peptide)
chain: Ac-EKFMDVYQLKYKGIC[Ahp]QIMRIKPHQGQHIGETS-NH2
modifications: bridge 1-15 via isopeptide; reading uncertain; also: two peptides Hx (1-14, C-terminal amide after Ile14) and Hn (15-33) joined by isopeptide bond
